Where two headings read alike, the source gives them in different places. No end group written: not given here.
Columns and labels:
[1] = test system: S. aureus LMGT 3266
Experimental: (§1) Bacterial strains, growth conditions, bacteriocins and antimicrobial assays. All the strains (see below) used in minimal inhibitory concentration (MIC) assays (Varahan et al., 2014, M. Bio. 5:e01726-01714) were grown in BHI medium (Oxoid) at 30° C. without shaking. A collection of E. faecium strains isolated from blood in patients from different European hospitals was received from Department of Medical Microbiology, University Medical Center Utrecht, the Netherlands. […] Synthesized peptides were solubilized to concentrations of 10.0-0.1 mg/ml in 0.1% (vol/vol) trifluoroacetic acid and stored at −20° C. until use. […] Bacteriocin activity was determined by microtiter plate assay as previously described (Holo et al., 1991, J. Bacteriol., 173:3879-3887). The MIC was defined as the minimal bacteriocin concentration that inhibited the growth of the indicator strain by at least 50% (50% of the turbidity of the control culture without bacteriocin) in 200 μl culture. CD Spectroscopy Circular dichroism (CD) spectra were recorded using a Jasco J-810 spectropolarimeter (Jasco International Co) calibrated with D-camphor-10-sulfonate (Icatayama Chemical). All measurements were made using a quartz cuvette (Sterna) with 0.1 cm path length. Samples were scanned five times with a scanning rate of 50 nm/min with a bandwidth of 0.5 nm and response time of 1 s over the wavelength range 190-250 nm. Spectra were recorded at different (30 and 50%) trifluoroethanol (TFE) (Aldridge) concentrations at 25° C. The approximate α-helical content of the protein was estimated from its molar ellipticity at 222 nm (Scholtz et al., 1991, Biopolymers 31:1463-1470). NMR Spectroscopy The experiments were run on a sample containing 1.0 mM EntK1, 50% D3-TFE (99.5% D) (Aldrich), Milli-Q water and 0.2 mM of 4,4-dimethyl-4-silapentane-1-sulfonic acid (DSS) (Larodan). 2D NOESY (Jeener et al., 1979, J. Magn. Reson., 71:4546-4553), 2D TOCSY (Braunschweiler and Ernst, 1983, J. Magn. Reson., 53:521-528), 2D DQCOSY, ^15N-HSQC (Davis et al., 1992, J. Magn. Reson., 98:207-216) and ^13C-HSQC (Hurd, 1991, J. Magn. Reson., 91:648-653) were recorded. The data was acquired on a 600 MHz Bruker Avance II spectrometer with four channels and a 5 mm TCI cryoprobe (Bruker Biospin). NOESY spectra with mixing times between 120 ms and 300 ms were obtained for both samples. TOCSY mixing times of 15-80 ms were used. The experiments were run at 298.15 K. Spectra were processed using the Topspin program (Bruker Biospin). 4,4-dimethyl-4-silapentane-1-sulfonic acid (DSS) was used as a chemical shift standard, and ^15N and ^13C data were referenced using frequency ratios as described in (Wishart et al., 1995, J. Biomol. NMR., 6:135-140). For visualization, assignment and integration of the spectra the computer program CARA was used (Keller, 2004, The Computer Aided Resonance Assignment Tutorial. CANTINA Verlag, Goldau, Switzerland). The spectra were assigned using standard methods. Dihedral angle restraints were obtained from the chemical shift values using the program TALOS-N(Shen and Bax, 2013, J. Biomol. NMR, 56:227-241). Nuclear Overhauser effect (NOE) distance restraints were calculated from the peak volumes in the NOESY spectra with NOESY mixing time of 200 ms. All structure calculations were made using the structure calculation program CYANA 2.1 (Guntert et al., 1997, J. Mol. Biol., 273:283-298; Herrmann et al., 2002, J. Mol. Biol., 319:209-227). The annealing macro in CYANA calculated 100 structures. The 20 structures with the lowest energy were kept and analyzed further. The root-mean-square deviation (RMSD) was calculated and the structures were visualized using MolMol (Koradi et al., 1996, J. Mol. Graph., 14:51-55, 29-32). Generation of bacteriocin resistant mutants of E. faecalis and E. faecium.

[2] = test system: S. pneumoniae ms4; details: ms4, rseP Y24>A, induced with ComS (2 μM)
Experimental: as §1

[3] = test system: S. pneumoniae ms1; details: ms1, rseP H18>A, induced with ComS (2 μM)
Experimental: as §1

[4] = test system: Listeria monocytogenes LMGT 2651
Experimental: as §1

[5] = test system: B. cereus LMGT 2731
Experimental: as §1

[6] = test system: S. pneumoniae ms3; details: ms3, rseP H22>A, induced with ComS (2 μM)
Experimental: as §1

[7] = test system: E. faecium LMGT 3192
Experimental: as §1

[8] = test system: L. monocytogenes LMGT 2605
Experimental: as §1

[9] = test system: S. pneumoniae ds220 induced; details: ds220 induced with ComS (2 μM), WT rseP
Experimental: as §1

[10] = test system: Lactobacillus sakei LMGT 2334
Experimental: as §1

[11] = test system: S. aureus LMGT 3260
Experimental: as §1

[12] = test system: S. aureus LMGT 3258
Experimental: as §1

[13] = test system: Enterococcus. faecalis LMGT 3199
Experimental: as §1

[14] = test system: S. pneumoniae ms2; details: ms2, rseP E19>A, induced with ComS (2 μM)
Experimental: as §1

[15] = test system: L. garvieae LMGT 2217
Experimental: as §1

[16] = test system: E. faecalis LMGT 3143
Experimental: as §1

[17] = test system: E. faecalis LMGT 3330
Experimental: as §1

[18] = test system: Lactococcus garvieae LMGT 1546
Experimental: as §1

[19] = test system: E. faecalis LMGT 3359
Experimental: as §1

[20] = test system: L. lactis LMGT 2095
Experimental: as §1

[21] = test system: E. faecalis LMGT 3370
Experimental: as §1

“MKFKFNPTGTIVKKLTQYEIAWFKNKHGYYPWEIPRC [EntK1]” was tested, and the “MIC 50” value [1] was over 5.5 µM, the MIC [2] was 0.7 µM and the MIC [3] was over 5.5 µM. The “MIC 50” value [4] was over 5.5 µM, the “MIC 50” value [5] was over 5.5 µM and the MIC [6] was over 5.5 µM. For the same sequence, the “MIC 50” value [7] was 0.02 µM, the “MIC 50” value [8] was over 5.5 µM and the MIC [9] was 0.7 µM. For the same sequence, the “MIC 50” value ([10]; Lactobacillus sakei LMGT 2334) was over 5.5 µM, the “MIC 50” value [11] was over 5.5 µM and the “MIC 50” value [12] was over 5.5 µM. For the same sequence, the “MIC 50” value [13] was 5.5 µM, the MIC [14] was over 5.5 µM and the “MIC 50” value [15] was 0.34 µM. For the same sequence, the “MIC 50” value [16] was over 5.5 µM, the “MIC 50” value [17] was over 5.5 µM and the “MIC 50” value [18] was 1.37 µM. The “MIC 50” value [19] was over 5.5 µM, the “MIC 50” value [20] was over 5.5 µM and the “MIC 50” value [21] was 5.5 µM.
For “MKTILRFVAGYDIASHKKKTGGYPWERGKA [LsbB, reference compound]”, the “MIC 50” value [1] was over 7 µM, the MIC [2] was over 7 µM and the MIC [3] was over 7 µM. For the same sequence, the “MIC 50” value [4] was over 7 µM, the “MIC 50” value [5] was over 7 µM and the MIC [6] was over 7 µM. For the same sequence, the “MIC 50” value [7] was over 7 µM, the “MIC 50” value [8] was over 7 µM and the MIC [9] was over 7 µM. For the same sequence, the “MIC 50” value ([10]; LMGT 2334) was over 7 µM, the “MIC 50” value [11] was over 7 µM and the “MIC 50” value [12] was over 7 µM. The “MIC 50” value [13] was over 7 µM, the MIC [14] was over 7 µM and the “MIC 50” value [15] was over 7 µM. The “MIC 50” value [16] was over 7 µM, the “MIC 50” value [17] was over 7 µM and the “MIC 50” value [18] was over 7 µM. For the same sequence, the “MIC 50” value [19] was over 7 µM, the “MIC 50” value [20] was over 7 µM and the “MIC 50” value [21] was over 7 µM.
For “MLAKIKAMIKKFPNPYTLAAKLTTYEINWYKQQYGRYPWERPVA [EntEJ97]”, the “MIC 50” value [1] was 1.175 µM, the MIC [2] was 0.018 µM and the MIC [3] was 0.3 µM. For the same sequence, the “MIC 50” value [4] was 2.3 µM, the “MIC 50” value [5] was over 4.7 µM and the MIC [6] was 0.3 µM. For the same sequence, the “MIC 50” value [7] was 0.295 µM, the “MIC 50” value [8] was 1.175 µM and the MIC [9] was 0.018 µM. The “MIC 50” value ([10]; Lactobacillus sakei LMGT 2334) was over 4.7 µM, the “MIC 50” value [11] was 2.3 µM and the “MIC 50” value [12] was over 4.7 µM. For the same sequence, the “MIC 50” value [13] was 0.145 µM, the MIC [14] was 0.3 µM and the “MIC 50” value [15] was 0.295 µM. The “MIC 50” value [16] was 0.145 µM, the “MIC 50” value [17] was 0.145 µM and the “MIC 50” value [18] was 0.295 µM. For the same sequence, the “MIC 50” value [19] was 0.145 µM, the “MIC 50” value [20] was 0.145 µM and the “MIC 50” value [21] was 0.145 µM.
